{"source": "patent US20200254065A1", "about": "“LONG-ACTING GLP-2 ANALOGS” (OPKO Biologics Ltd., priority 2019, published 2020)", "key": {"[1]": {"test": "Pharmacokinetics of conjugated teduglutide in rats (commercial GLP2 ELISA kit)", "type": "in vivo", "conditions": "SD rats", "procedure": "Plasma samples were collected at pre-dose, 0.5, 2, 4, 8, 12, 24, 48, 72, 96, 168, 216, and 240 hours post dose. The levels of conjugates and free teduglutide were measured using commercial GLP2 ELISA kit."}, "small intestine": {"test_system": "small intestine", "test": "Intestine weight model in rats", "type": "in vivo, SD rats", "in_short": "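Rat intestinal growth model: conjugates given s.c. at 0.5–8.0 mg/kg peptide dose, as one injection, on days 1 and 3, or every 6 days; small intestine weighed on day 3, 6, 7, 10, 12 or 14. Histology (H&E, duodenum/jejunum/ileum) gave crypt+villus length. Both reported as % increase over vehicle.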"}, "GLP-2 receptor": {"target": "T1, GLP-2 receptor (Homo sapiens, UniProt O95838)", "T1 sequence (O95838 1-553)": "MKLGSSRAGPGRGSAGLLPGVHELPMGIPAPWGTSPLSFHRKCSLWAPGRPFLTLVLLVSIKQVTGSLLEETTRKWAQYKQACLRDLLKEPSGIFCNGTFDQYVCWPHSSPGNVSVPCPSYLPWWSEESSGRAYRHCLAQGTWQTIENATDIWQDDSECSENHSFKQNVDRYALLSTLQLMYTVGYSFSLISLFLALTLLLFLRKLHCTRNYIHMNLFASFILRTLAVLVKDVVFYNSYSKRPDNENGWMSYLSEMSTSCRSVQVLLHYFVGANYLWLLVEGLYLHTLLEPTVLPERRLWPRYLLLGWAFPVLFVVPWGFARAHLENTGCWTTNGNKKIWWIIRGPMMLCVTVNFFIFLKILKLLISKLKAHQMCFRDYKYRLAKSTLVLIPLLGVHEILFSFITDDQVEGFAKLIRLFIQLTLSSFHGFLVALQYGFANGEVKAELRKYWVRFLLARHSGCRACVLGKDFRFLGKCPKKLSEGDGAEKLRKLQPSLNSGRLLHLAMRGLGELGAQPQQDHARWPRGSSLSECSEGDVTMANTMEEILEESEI", "test": "GLP-2 receptor Cell Based Assay (CBA)", "conditions": "EC50 (nM) Average, average of 3 independent CBA; different GLP-2R Assay Kit lot (Table 8)", "quoted_text": "Evaluation of in vitro binding affinity of the different peptides was assessed by using Cell Based Assay (CBA) in the presence of escalating doses of the different peptides."}, "[2]": {"test": "2-compartmental pharmacokinetic modelling (MONOLIX 2018R2)", "type": "in vivo, rat", "conditions": "rat, in vivo", "procedure": "An in-depth PK modeling was performed to address the unexpected differences in half life, distribution, and pharmacological effect between V4, Cys-FMS-V4, and Apraglutide in the rat model. The analysis was performed with MONOLIX 2018R2 suite using a 2-compartmental pharmacokinetic model. The data used in this analysis was comprised from 3 independent experiments (data is presented as their average). The concentration versus time data of V4 that was formed from the Cys-FMS-V4 conjugate (the hydrolyzed peptide) was described appropriately using the values of the pharmacokinetic parameters of V4 peptide. Thus, the disposition of the hydrolyzed V4 was identical to that of the V4 peptide following the IV and SC administration.\nThe pharmacokinetics of Apraglutide in our studies was determined after SC administration. […] Based on this assumption, the values of volumes of distribution and clearance (Vpept, Vss, Vbeta, and CL) were calculated for Apraglutide (Table 13). The values of the other parameters of Apraglutide in Table 14 (the rate constants and the half-lives) are not dependent on this assumption."}, "[3]": {"test": "PK after single SC injection in rats (LC-MS/MS)", "conditions": "rat, in vivo, 2 mg/kg", "procedure": "To support the pharmacodynamic effects of V4 and Cys-FMS-V4 as detailed in Example 9, a pharmacokinetic analysis was also conducted. In this study (Study reference 15204), all animals were injected SC on Day 1 with 2 mg/kg peptide content of V4, Cys-FMS-V4 and Apraglutide. Blood samples were collected at 2, 8, 12, 24, 36, 48, 72, 96, 120 hours, and Days 7, 8, 9, 10, 11, 12, 13 and 14 post-dose administration and subsequently taken to LC-MS/MS analysis to determine plasma levels of each compound. For Cys-FMS-V4, a 2-analyte method was applied to determine the plasma concentrations of both the full conjugate and the V4 that was hydrolyzed from it (V4 hydrolyzed). Plasma concentrations (μM), as measured by using the LC-MS/MS method, of V4 peptide, Cys-FMS-V4, hydrolyzed V4, and Apraglutide are presented in FIG. 17."}, "[4]": {"conditions": "Apraglutide, as previously reported, cited from earlier work"}, "[5]": {"test": "Stability of GLP-2 analogues on incubation at 37° C. (appearance, O.D. reading, RP-HPLC)", "type": "physicochemical", "conditions": "following 48 h incubation at 37° C.", "procedure": "The GLP-2 analogues were tested for stability via appearance, O.D. reading (A.280, and A.325) and RP-HPLC (purity, and peak area) following t=0, 1 day, and 48 h incubation at 37° C."}, "[6]": {"conditions": "circulating native GLP-2; in humans; cited from earlier work"}}, "note": "Square brackets hold non-standard residues; d marks the D form. Peptide text beside a SMILES is read from it. Nle = CCCC[C@H](N)C(=O)O", "data": [{"compound": "CC[C@H](C)[C@H](NC(=O)[C@H](Cc1ccccc1)NC(=O)[C@H](CC(=O)O)NC(=O)[C@H](CCCNC(=N)N)NC(=O)[C@H](C)NC(=O)[C@H](C)NC(=O)[C@H](CC(C)C)NC(=O)[C@H](CC(N)=O)NC(=O)[C@H](CC(=O)O)NC(=O)[C@H](CC(C)C)NC(=O)[C@@H](NC(=O)[C@@H](NC(=O)[C@H](CC(N)=O)NC(=O)[C@H](CCSC)NC(=O)[C@H](CCC(=O)O)NC(=O)[C@H](CC(=O)O)NC(=O)[C@H](CO)NC(=O)[C@H](Cc1ccccc1)NC(=O)[C@H](CO)NC(=O)CNC(=O)[C@H](CC(=O)O)NC(=O)CNC(=O)[C@@H](N)Cc1c[nH]cn1)[C@@H](C)O)[C@@H](C)CC)C(=O)N[C@@H](CC(N)=O)C(=O)N[C@@H](Cc1c[nH]c2ccccc12)C(=O)N[C@@H](CC(C)C)C(=O)N[C@H](C(=O)N[C@@H](CCC(N)=O)C(=O)N[C@H](C(=O)N[C@@H](CCCCN)C(=O)N[C@H](C(=O)N[C@H](C(=O)N[C@@H](CC(=O)O)C(=O)O)[C@@H](C)O)[C@@H](C)CC)[C@@H](C)O)[C@@H](C)CC", "note": "[GLP-2-Gly2, reference compound]", "values": [{"measurement": "Time up to which detectable in plasma", "setting": "[1]; single injection", "value": "up to 4 hours"}, {"measurement": "half-life", "setting": "[1]; rat, plasma, injected once at 2 mg/kg peptide dose, read-out: Half-Life (t1/2, hr) (converted)", "value": 0.9, "unit": "h"}, {"measurement": "Increase of intestine weight over vehicle (%)", "setting": "small intestine; 2.5 mg/kg daily injections for five days (5 injections), average of five studies", "value": 25, "unit": "%"}, {"measurement": "Average Intestine weight (gr)", "setting": "small intestine; SD rats, SC on days 1 and 3 at 1 mg/kg peptide dose (2 injections), intestine weight on day 6", "value": 5.7, "unit": "gr"}, {"measurement": "Increase of intestine weight over vehicle (%)", "setting": "small intestine; SD rats, SC on days 1 and 3 at 1 mg/kg peptide dose (2 injections), intestine weight on day 6, listed as GLP-2-Gly2 (Teduglutide), 1 mg/kg", "value": 5, "unit": "%"}, {"measurement": "Increase of intestine weight over vehicle (%)", "setting": "small intestine; SD rats, SC on days 1 and 3 at 1 mg/kg peptide dose (2 injections), intestine weight on day 6, listed as teduglutide, 1 mg/kg", "value": "did not increase intestine weight compared to vehicle"}]}, {"compound": "CCCC[C@H](NC(=O)[C@H](CCC(=O)O)NC(=O)[C@H](CC(=O)O)NC(=O)[C@H](CO)NC(=O)[C@H](Cc1ccccc1)NC(=O)[C@H](CO)NC(=O)CNC(=O)[C@H](CC(=O)O)NC(=O)CNC(=O)[C@@H](N)Cc1cnc[nH]1)C(=O)N[C@H](Cc1ccccc1)C(=O)N[C@H](C(=O)N[C@H](C(=O)N[C@@H](CC(C)C)C(=O)N[C@@H](CC(=O)O)C(=O)N[C@@H](CC(C)C)C(=O)N[C@@H](CC(C)C)C(=O)N[C@@H](C)C(=O)N[C@@H](C)C(=O)N[C@@H](CCCNC(=N)N)C(=O)N[C@@H](CC(=O)O)C(=O)N[C@@H](Cc1ccccc1)C(=O)N[C@H](C(=O)N[C@@H](CC(N)=O)C(=O)N[C@@H](Cc1c[nH]c2ccccc12)C(=O)N[C@@H](CC(C)C)C(=O)N[C@H](C(=O)N[C@@H](CCC(N)=O)C(=O)N[C@H](C(=O)N[C@@H](CCCCN)C(=O)N[C@H](C(=O)N[C@H](C(=O)N[C@@H](CC(=O)O)C(N)=O)[C@@H](C)O)[C@@H](C)CC)[C@@H](C)O)[C@@H](C)CC)[C@@H](C)CC)[C@@H](C)CC)[C@@H](C)O", "note": "[Variant 1, reference compound] (H-HGDGSFSDE[Nle][dF]TILDLLAARDFINWLIQTKITD-NH2)", "values": [{"measurement": "EC50", "setting": "GLP-2 receptor", "value": 1.7, "unit": "nM"}, {"measurement": "k12", "setting": "[2]", "value": 0.0065, "unit": "h⁻¹"}, {"measurement": "k21", "setting": "[2]", "value": 0.0068, "unit": "h⁻¹"}, {"measurement": "ka—pept", "setting": "[2]", "value": 0.1661, "unit": "h⁻¹"}, {"measurement": "kpepte", "setting": "[2]", "value": 0.0855, "unit": "h⁻¹"}, {"measurement": "CL", "setting": "[2]; sc", "value": 0.222, "unit": "mL/min/kg"}, {"measurement": "Vd", "setting": "[2]; sc", "value": 2.12, "unit": "L/kg"}, {"measurement": "Vpept", "setting": "[2]; sc", "value": 0.156, "unit": "L/kg"}, {"measurement": "Vss", "setting": "[2]; sc", "value": 0.303, "unit": "L/kg"}, {"measurement": "half-life", "setting": "[2]; sc, t1/2 absorption", "value": 4.17, "unit": "h"}, {"measurement": "half-life", "setting": "[2]; t1/2 alpha", "value": 7.5, "unit": "h"}, {"measurement": "half-life", "setting": "[2]; t1/2 beta", "value": 110, "unit": "h"}, {"measurement": "AUC(0-inf)", "setting": "[3]", "value": 29.4, "unit": "µM·h"}, {"measurement": "AUC(0-t)", "setting": "[3]", "value": 29.2, "unit": "µM·h"}, {"measurement": "CL/F", "setting": "[3]", "value": 0.3, "unit": "mL/min/kg"}, {"measurement": "Cmax", "setting": "[3]", "value": 1950, "unit": "nM"}, {"measurement": "Time post injection up to which detectable in blood", "setting": "[3]", "value": "≤ 120", "unit": "h"}, {"measurement": "Tmax", "setting": "[3]", "value": 8, "unit": "h"}, {"measurement": "Vd/F", "setting": "[3]", "value": 0.38, "unit": "L/kg"}, {"measurement": "half-life", "setting": "[3]", "value": 14.5, "unit": "h"}, {"measurement": "Fpept", "setting": "[4]; assumed absolute SC bioavailability in rats", "value": 0.74}, {"measurement": "Absolute bioavailability following SC administration in rats", "setting": "[4]; assumed", "value": 74, "unit": "%"}, {"measurement": "Solubility via appearance", "setting": "[5]", "value": "V1: opaque"}, {"measurement": "Stability via RP-HPLC main peak", "setting": "[5]; change of main peak", "value": "V1: −20%"}]}, {"compound": "NH2-HADGSFSDEMNTILDNLAARDFINWLIQTKITD-COOH [native GLP-2]", "values": [{"measurement": "Biological (in vivo) half-life", "setting": "[6]", "value": "approximately 7 minutes"}]}]}
